Literature values in patent publication US12687554B2, “Molecular profiling of tumors” (Caris MPI, Inc., priority 2006, dated 2026).
Entries after “also recorded” stand apart in the source; their conditions may differ. Read-outs that look alike come from different tables or passages of the source.

System: differentially expressed or mutated biomarker in cancer cells
[1] = EGFR, FISH, Positive, with loss of PTEN, mutation of KRAS or BRAF per Summary
[2] = PTEN, IHC, Above Threshold, with the other biomarker results named in the Summary
[3] = biomarker PTEN, IHC, result Above Threshold, with the other biomarker results named in the Summary
[4] = biomarker PTEN, IHC, result Negative (loss of PTEN protein expression)
[5] = KRAS, Mutational Analysis, Mutated
[6] = KRAS, Mutational Analysis, Wild type genotype
[7] = KRAS, Mutational Analysis, Wild type genotype, with loss of PTEN and/or FISH negative EGFR per Summary
[8] = biomarker EGFR, FISH, result Negative (lack of EGFR gene copy number increase)
[9] = biomarker EGFR, FISH, result Positive (high EGFR gene copy number)
[10] = biomarker EGFR, FISH, result Positive, with the other biomarker results named in the Summary
[11] = biomarker EGFR, Mutational Analysis, result Mutated
[12] = biomarker EGFR, Mutational Analysis, result Mutated, with the other biomarker results named in the Summary
[13] = biomarker EGFR, Mutational Analysis, result Wild type genotype
[14] = biomarker KRAS, Mutational Analysis, result Wild type genotype
[15] = biomarker KRAS, Mutational Analysis, result Wild type genotype, with the other biomarker results named in the Summary
[16] = EGFR, Mutational Analysis, Mutated
[17] = EGFR, Mutational Analysis, Wild type genotype
[18] = biomarker KRAS, Mutational Analysis, result Mutated

For Panitumumab, the “Resistant Agents” value [1] is listed as “Panitumumab,”, the “Recommended Agents” value [2] is listed as “Panitumumab,” and the “Resistant Agents” value [3] is listed as “Panitumumab,”. The “Resistant Agents” value [4] was “Panitumumab,”.
In the case of `CS(=O)(=O)CCNCc1ccc(-c2ccc3ncnc(Nc4ccc(OCc5cccc(F)c5)c(Cl)c4)c3c2)o1` [lapatinib], the “Recommended Agents” value (Her2/Neu, FISH, Amplified) is given as “lapatinib”, the “Resistant Agents” value (Her2/Neu, FISH, Not Amplified) is given as “lapatinib” and the “Recommended Agents” value (Her2/Neu, IHC, Above Threshold) is given as “lapatinib”. The “Resistant Agents” value (Her2/Neu, IHC, Negative) was “lapatinib”, the “Resistant Agents” value [2] was “lapatinib” and the “Resistant Agents” value (PTEN, IHC, Negative) was “lapatinib”.
In the case of `CC(=O)Oc1ccccc1C(=O)O` [aspirin], the “Recommended Agents” value (COX-2, IHC, Above Threshold) is listed as “aspirin” and the “Resistant Agents” value (COX-2, IHC, Negative) is listed as “aspirin”.
In the case of `C#Cc1cccc(Nc2ncnc3cc(OCCOC)c(OCCOC)cc23)c1` [erlotinib], the “Resistant Agents” value (EGFR, FISH, Negative) is given as “erlotinib”, the “Recommended Agents” value (EGFR, FISH, Positive) is given as “erlotinib” and the “Resistant Agents” value [1] is given as “erlotinib”. The “Resistant Agents” value [5] was “erlotinib”, the “Recommended Agents” value [6] was “erlotinib” and the “Resistant Agents” value [7] was “erlotinib”. The “Recommended Agents” value [2] was “erlotinib”, the “Resistant Agents” value [2] was “erlotinib” and the “Resistant Agents” value (PTEN, IHC, Negative) was “erlotinib”. The “Resistant Agents” value [8] was “erlotinib”, the “Recommended Agents” value [9] was “erlotinib” and the “Resistant Agents” value [10] was “erlotinib”. The “Recommended Agents” value [11] was “erlotinib”, the “Resistant Agents” value [12] was “erlotinib” and the “Resistant Agents” value [13] was “erlotinib”. The “Recommended Agents” value [14] was “erlotinib”, the “Resistant Agents” value [15] was “erlotinib” and the “Resistant Agents” value [3] was “erlotinib”. For the same molecule, the “Resistant Agents” value [4] was “erlotinib,”.
In the case of `Cc1ccc(NC(=O)c2ccc(CN3CCN(C)CC3)cc2)cc1Nc1nccc(-c2cccnc2)n1` [imatinib], the “Recommended Agents” value (c-kit, Mutational Analysis, Mutated, mutations in exon 9) is given as “imatinib”, the “Resistant Agents” value (c-kit, Mutational Analysis, Mutated, mutations in exon 11) is given as “imatinib” and the “Recommended Agents” value (c-kit, Mutational Analysis, Wild type genotype) is given as “imatinib”.
In the case of `CC(=O)Oc1ccccc1C(=O)O` [asprin], the “Recommended Agents” value (COX-2, Microarray, Overexpressed) is given as “asprin”.
In the case of `COc1cc2ncnc(Nc3ccc(F)c(Cl)c3)c2cc1OCCCN1CCOCC1` [Gefitinib], the “Resistant Agents” value (EGFR, FISH, Negative) is given as “Gefitinib”, the “Resistant Agents” value [1] is given as “Gefitinib” and the “Recommended Agents” value [16] is given as “Gefitinib”. For the same molecule, the “Resistant Agents” value [17] was “Gefitinib”, the “Recommended Agents” value [2] was “Gefitinib; also recorded: Gefitinib,” and the “Resistant Agents” value [2] was “Gefitinib”. The “Resistant Agents” value [3] was “Gefitinib” and the “Resistant Agents” value [4] was “Gefitinib,; also recorded: Gefitinib”.
In the case of panitumumab, the “Resistant Agents” value (BRAF, Mutational Analysis, Mutated) is listed as “panitumumab”, the “Recommended Agents” value (BRAF, Mutational Analysis, Wild type genotype) is listed as “panitumumab” and the “Resistant Agents” value (BRAF, Mutational Analysis, Wild type genotype, with loss of PTEN and/or FISH negative EGFR per Summary) is listed as “panitumumab”. The “Resistant Agents” value [1] was “panitumumab,”, the “Resistant Agents” value [5] was “panitumumab,” and the “Recommended Agents” value [6] was “panitumumab,”. For the same molecule, the “Resistant Agents” value [7] was “panitumumab,”, the “Recommended Agents” value [2] was “panitumumab,; also recorded: panitumumab” and the “Resistant Agents” value [2] was “panitumumab,”. For the same molecule, the “Resistant Agents” value (PTEN, IHC, Negative) was “panitumumab,”, the “Resistant Agents” value (biomarker BRAF, Mutational Analysis, result Mutated) was “panitumumab” and the “Resistant Agents” value (biomarker BRAF, Mutational Analysis, result Wild type genotype, with the other biomarker results named in the Summary) was “panitumumab”. For the same molecule, the “Resistant Agents” value [8] was “panitumumab,”, the “Resistant Agents” value [10] was “panitumumab,” and the “Resistant Agents” value [18] was “panitumumab,”. For the same molecule, the “Resistant Agents” value [15] was “panitumumab,”, the “Resistant Agents” value [3] was “panitumumab,” and the “Resistant Agents” value [4] was “panitumumab,”.
In the case of `COc1cc2ncnc(Nc3ccc(F)c(Cl)c3)c2cc1OCCCN1CCOCC1` [gefitinib], the “Recommended Agents” value (EGFR, FISH, Positive) is given as “gefitinib”, the “Resistant Agents” value [1] is given as “gefitinib” and the “Resistant Agents” value [5] is given as “gefitinib”. For the same molecule, the “Recommended Agents” value [6] was “gefitinib”, the “Resistant Agents” value [7] was “gefitinib” and the “Recommended Agents” value [2] was “gefitinib”. For the same molecule, the “Resistant Agents” value [2] was “gefitinib”, the “Resistant Agents” value (PTEN, IHC, Negative) was “gefitinib” and the “Resistant Agents” value [8] was “gefitinib”. For the same molecule, the “Recommended Agents” value [9] was “gefitinib”, the “Resistant Agents” value [10] was “gefitinib” and the “Recommended Agents” value [11] was “gefitinib”. For the same molecule, the “Resistant Agents” value [12] was “gefitinib”, the “Resistant Agents” value [13] was “gefitinib” and the “Resistant Agents” value [18] was “gefitinib”. For the same molecule, the “Recommended Agents” value [14] was “gefitinib”, the “Resistant Agents” value [15] was “gefitinib” and the “Recommended Agents” value (biomarker PTEN, IHC, result Above Threshold) was “gefitinib”. The “Resistant Agents” value [3] was “gefitinib”.
For `C#Cc1cccc(Nc2ncnc3cc(OCCOC)c(OCCOC)cc23)c1` [Erlotinib], the “Resistant Agents” value (EGFR, FISH, Negative) is listed as “Erlotinib”, the “Resistant Agents” value [1] is listed as “Erlotinib” and the “Recommended Agents” value [16] is listed as “Erlotinib”. The “Resistant Agents” value [17] was “Erlotinib”, the “Recommended Agents” value [2] was “Erlotinib; also recorded: Erlotinib,” and the “Resistant Agents” value (PTEN, IHC, Negative) was “Erlotinib,”. The “Resistant Agents” value [3] was “Erlotinib” and the “Resistant Agents” value [4] was “Erlotinib,; also recorded: Erlotinib”.
In the case of `CC1=C(/C=C/C(C)=C/C=C/C(C)=C/C(=O)O)C(C)(C)CCC1` [ATRA], the “Recommended Agents” value (RARA, Microarray, Overexpressed, for use only on hematologic malignancies) is listed as “ATRA”.
